Legend:
[1] = molecular target: 5-hydroxytryptamine receptor 2C (Homo sapiens) (UniProt P28335); conditions: Compound concentration 10.0 uM
[2] = molecular target: Dual specificity mitogen-activated protein kinase kinase 4 (Homo sapiens) (UniProt P45985); conditions: Compound concentration 1000.0 nM
[3] = molecular target: Myosin light chain kinase (Homo sapiens) (UniProt Q32MK0); conditions: Compound concentration 1000.0 nM
[4] = molecular target: Serine/threonine-protein kinase ULK2 (Homo sapiens) (UniProt Q8IYT8); conditions: Compound concentration 1000.0 nM
[5] = molecular target: Histamine H3 receptor (Homo sapiens) (UniProt Q9Y5N1); test: H3/H Eurofins-Panlabs selectivity data (BI); conditions: Compound concentration 10.0 uM
[6] = molecular target: Neuropeptide Y receptor type 1 (Homo sapiens) (UniProt P25929); test: Y1/HU Eurofins-Panlabs selectivity data (BI); conditions: Compound concentration 10.0 uM
[7] = molecular target: Glutamate receptor ionotropic, NMDA 2A (Rattus norvegicus) (UniProt Q00959); test: NMDAPHSI/R Eurofins-Panlabs selectivity data (BI); conditions: Compound concentration 10.0 uM
[8] = molecular target: D(3) dopamine receptor (Homo sapiens) (UniProt P35462); conditions: Compound concentration 10.0 uM
[9] = molecular target: P2X purinoceptor (Oryctolagus cuniculus) (UniProt G1U3D6); test: P2X/RB Eurofins-Panlabs selectivity data (BI); conditions: Compound concentration 10.0 uM
[10] = molecular target: Platelet-activating factor receptor (Homo sapiens) (UniProt P25105); test: PAF/H Eurofins-Panlabs selectivity data (BI); conditions: Compound concentration 10.0 uM
[11] = molecular target: Endothelin receptor type B (Homo sapiens) (UniProt P24530); test: ETB/HUM Eurofins-Panlabs selectivity data (BI); conditions: Compound concentration 10.0 uM
[12] = molecular target: T1, Alpha-1D adrenergic receptor (Homo sapiens) (UniProt P25100); test: ALPHA1D/H Eurofins-Panlabs selectivity data (BI); conditions: Compound concentration 10.0 uM
T1 sequence (whole entry): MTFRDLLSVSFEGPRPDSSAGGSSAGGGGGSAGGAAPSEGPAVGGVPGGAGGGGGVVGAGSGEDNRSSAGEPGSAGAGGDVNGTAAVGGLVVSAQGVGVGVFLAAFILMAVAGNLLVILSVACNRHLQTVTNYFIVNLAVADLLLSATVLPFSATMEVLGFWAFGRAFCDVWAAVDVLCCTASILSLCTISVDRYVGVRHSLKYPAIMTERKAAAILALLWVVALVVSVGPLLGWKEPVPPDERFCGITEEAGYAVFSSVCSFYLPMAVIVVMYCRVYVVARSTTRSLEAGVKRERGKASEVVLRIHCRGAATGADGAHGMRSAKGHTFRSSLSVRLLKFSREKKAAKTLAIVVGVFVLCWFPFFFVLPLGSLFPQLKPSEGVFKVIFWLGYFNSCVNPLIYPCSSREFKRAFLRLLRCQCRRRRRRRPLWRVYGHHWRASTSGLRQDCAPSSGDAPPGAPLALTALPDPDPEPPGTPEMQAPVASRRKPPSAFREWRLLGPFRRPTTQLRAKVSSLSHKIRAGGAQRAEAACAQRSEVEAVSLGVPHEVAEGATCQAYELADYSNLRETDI

[13] = molecular target: Glutamate receptor ionotropic, kainate 1 (Rattus norvegicus) (UniProt P22756); test: KAINATE/R Eurofins-Panlabs selectivity data (BI); conditions: Compound concentration 10.0 uM
[14] = molecular target: D(2) dopamine receptor (Homo sapiens) (UniProt P14416); test: D2S/HU Eurofins-Panlabs selectivity data (BI); conditions: Compound concentration 10.0 uM
[15] = molecular target: Glucocorticoid receptor (Homo sapiens) (UniProt P04150); test: GLUCOCORTICO Eurofins-Panlabs selectivity data (BI); conditions: Compound concentration 10.0 uM
[16] = molecular target: Delta-type opioid receptor (Homo sapiens) (UniProt P41143); test: DELTA/HU Eurofins-Panlabs selectivity data (BI); conditions: Compound concentration 10.0 uM
[17] = molecular target: Adenosine receptor A1 (Homo sapiens) (UniProt P30542); test: A1/HU Eurofins-Panlabs selectivity data (BI); conditions: Compound concentration 10.0 uM
[18] = molecular target: Gamma-aminobutyric acid receptor subunit alpha-1 (Rattus norvegicus) (UniProt P62813); test: GABAACENTR Eurofins-Panlabs selectivity data (BI); conditions: Compound concentration 10.0 uM

Chain of Platelet-activating factor receptor (Homo sapiens) (P25105 whole entry): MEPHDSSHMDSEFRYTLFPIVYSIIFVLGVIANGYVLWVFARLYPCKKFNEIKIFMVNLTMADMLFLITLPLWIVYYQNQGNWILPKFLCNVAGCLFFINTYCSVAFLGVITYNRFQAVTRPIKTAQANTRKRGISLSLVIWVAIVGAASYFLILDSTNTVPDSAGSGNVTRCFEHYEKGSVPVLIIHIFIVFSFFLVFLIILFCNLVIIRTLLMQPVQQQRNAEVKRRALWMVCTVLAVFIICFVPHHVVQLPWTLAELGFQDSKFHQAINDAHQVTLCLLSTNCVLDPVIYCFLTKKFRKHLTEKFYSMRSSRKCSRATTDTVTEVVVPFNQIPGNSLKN
Chain of Glutamate receptor ionotropic, NMDA 2A (Rattus norvegicus) (Q00959 23-1464 limits assumed): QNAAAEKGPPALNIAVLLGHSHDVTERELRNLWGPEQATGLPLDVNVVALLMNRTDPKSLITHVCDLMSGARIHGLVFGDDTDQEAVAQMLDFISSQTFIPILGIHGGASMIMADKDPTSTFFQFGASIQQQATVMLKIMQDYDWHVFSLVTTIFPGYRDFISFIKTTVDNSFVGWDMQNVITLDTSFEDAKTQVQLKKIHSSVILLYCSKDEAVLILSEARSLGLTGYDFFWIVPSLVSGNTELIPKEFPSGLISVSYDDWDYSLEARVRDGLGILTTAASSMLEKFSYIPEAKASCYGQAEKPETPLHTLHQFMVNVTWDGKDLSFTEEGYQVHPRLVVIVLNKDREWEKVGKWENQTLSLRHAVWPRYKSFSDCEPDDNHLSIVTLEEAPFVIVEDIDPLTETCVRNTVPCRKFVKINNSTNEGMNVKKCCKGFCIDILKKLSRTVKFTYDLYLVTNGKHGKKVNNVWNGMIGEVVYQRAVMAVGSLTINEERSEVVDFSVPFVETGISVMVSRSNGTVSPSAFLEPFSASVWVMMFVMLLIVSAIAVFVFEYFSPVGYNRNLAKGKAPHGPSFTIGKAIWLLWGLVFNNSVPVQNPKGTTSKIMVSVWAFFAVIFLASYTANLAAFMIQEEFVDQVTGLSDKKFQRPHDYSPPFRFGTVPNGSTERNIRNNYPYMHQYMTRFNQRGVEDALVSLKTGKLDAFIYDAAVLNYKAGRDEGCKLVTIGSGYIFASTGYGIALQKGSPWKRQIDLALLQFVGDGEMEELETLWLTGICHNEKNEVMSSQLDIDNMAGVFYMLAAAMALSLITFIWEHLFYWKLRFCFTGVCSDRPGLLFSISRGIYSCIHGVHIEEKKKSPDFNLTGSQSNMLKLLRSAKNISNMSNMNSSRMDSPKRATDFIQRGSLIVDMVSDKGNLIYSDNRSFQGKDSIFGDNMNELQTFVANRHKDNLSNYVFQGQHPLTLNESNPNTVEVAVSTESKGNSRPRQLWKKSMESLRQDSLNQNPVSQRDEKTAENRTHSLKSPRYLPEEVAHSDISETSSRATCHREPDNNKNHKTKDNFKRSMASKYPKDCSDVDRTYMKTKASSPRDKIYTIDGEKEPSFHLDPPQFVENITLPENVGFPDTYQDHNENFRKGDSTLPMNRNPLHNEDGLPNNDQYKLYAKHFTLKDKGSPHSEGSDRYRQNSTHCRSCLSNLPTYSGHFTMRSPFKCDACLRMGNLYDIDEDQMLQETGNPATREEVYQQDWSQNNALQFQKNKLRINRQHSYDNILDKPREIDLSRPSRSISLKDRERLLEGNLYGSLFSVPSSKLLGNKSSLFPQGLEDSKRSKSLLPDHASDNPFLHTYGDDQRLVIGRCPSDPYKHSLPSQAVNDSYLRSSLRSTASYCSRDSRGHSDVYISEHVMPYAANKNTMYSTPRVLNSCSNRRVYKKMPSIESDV
Chain of Neuropeptide Y receptor type 1 (Homo sapiens) (P25929 whole entry): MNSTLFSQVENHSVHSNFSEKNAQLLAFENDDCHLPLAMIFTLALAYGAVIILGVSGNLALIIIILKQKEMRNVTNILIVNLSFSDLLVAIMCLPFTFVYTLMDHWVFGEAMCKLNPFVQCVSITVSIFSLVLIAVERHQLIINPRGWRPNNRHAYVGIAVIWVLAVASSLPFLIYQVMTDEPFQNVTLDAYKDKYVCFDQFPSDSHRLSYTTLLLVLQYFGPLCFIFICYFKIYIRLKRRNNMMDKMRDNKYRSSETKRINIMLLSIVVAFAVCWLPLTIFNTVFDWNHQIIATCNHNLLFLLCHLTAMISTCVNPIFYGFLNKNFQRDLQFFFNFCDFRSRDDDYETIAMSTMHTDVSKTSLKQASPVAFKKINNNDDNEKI
Chain of Histamine H3 receptor (Homo sapiens) (Q9Y5N1 whole entry): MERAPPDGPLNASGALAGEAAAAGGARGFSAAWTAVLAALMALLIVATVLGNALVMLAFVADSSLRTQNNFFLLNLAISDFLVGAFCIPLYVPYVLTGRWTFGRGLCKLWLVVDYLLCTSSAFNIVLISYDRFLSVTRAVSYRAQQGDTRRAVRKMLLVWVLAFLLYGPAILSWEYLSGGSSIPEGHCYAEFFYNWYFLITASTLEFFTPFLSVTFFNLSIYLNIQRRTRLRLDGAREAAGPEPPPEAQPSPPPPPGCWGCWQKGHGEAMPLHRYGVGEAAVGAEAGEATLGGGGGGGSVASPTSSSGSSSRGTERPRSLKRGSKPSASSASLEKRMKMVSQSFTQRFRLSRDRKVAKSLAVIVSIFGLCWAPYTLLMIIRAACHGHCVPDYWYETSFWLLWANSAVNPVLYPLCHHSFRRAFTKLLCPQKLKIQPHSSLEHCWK
Chain of Glucocorticoid receptor (Homo sapiens) (P04150 whole entry): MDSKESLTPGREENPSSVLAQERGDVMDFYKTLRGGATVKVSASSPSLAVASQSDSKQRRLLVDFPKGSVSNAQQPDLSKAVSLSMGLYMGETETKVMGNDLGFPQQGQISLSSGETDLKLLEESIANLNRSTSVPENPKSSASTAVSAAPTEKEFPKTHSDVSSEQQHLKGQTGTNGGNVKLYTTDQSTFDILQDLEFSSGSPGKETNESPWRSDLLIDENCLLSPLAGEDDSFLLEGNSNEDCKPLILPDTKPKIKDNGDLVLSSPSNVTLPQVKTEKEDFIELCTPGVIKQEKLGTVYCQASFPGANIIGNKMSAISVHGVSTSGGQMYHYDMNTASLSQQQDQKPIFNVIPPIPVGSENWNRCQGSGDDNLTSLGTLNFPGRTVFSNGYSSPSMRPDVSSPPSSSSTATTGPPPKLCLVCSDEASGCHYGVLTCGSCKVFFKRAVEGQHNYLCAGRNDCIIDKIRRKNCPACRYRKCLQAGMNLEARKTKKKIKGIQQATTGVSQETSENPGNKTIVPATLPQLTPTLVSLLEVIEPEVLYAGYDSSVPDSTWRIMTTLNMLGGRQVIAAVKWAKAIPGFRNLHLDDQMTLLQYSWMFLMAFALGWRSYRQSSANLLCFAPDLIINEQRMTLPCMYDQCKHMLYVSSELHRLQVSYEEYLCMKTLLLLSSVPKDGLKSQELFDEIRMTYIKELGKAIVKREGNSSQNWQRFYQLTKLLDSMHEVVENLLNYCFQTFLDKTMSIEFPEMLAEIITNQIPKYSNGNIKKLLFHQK
Chain of Serine/threonine-protein kinase ULK2 (Homo sapiens) (Q8IYT8 whole entry): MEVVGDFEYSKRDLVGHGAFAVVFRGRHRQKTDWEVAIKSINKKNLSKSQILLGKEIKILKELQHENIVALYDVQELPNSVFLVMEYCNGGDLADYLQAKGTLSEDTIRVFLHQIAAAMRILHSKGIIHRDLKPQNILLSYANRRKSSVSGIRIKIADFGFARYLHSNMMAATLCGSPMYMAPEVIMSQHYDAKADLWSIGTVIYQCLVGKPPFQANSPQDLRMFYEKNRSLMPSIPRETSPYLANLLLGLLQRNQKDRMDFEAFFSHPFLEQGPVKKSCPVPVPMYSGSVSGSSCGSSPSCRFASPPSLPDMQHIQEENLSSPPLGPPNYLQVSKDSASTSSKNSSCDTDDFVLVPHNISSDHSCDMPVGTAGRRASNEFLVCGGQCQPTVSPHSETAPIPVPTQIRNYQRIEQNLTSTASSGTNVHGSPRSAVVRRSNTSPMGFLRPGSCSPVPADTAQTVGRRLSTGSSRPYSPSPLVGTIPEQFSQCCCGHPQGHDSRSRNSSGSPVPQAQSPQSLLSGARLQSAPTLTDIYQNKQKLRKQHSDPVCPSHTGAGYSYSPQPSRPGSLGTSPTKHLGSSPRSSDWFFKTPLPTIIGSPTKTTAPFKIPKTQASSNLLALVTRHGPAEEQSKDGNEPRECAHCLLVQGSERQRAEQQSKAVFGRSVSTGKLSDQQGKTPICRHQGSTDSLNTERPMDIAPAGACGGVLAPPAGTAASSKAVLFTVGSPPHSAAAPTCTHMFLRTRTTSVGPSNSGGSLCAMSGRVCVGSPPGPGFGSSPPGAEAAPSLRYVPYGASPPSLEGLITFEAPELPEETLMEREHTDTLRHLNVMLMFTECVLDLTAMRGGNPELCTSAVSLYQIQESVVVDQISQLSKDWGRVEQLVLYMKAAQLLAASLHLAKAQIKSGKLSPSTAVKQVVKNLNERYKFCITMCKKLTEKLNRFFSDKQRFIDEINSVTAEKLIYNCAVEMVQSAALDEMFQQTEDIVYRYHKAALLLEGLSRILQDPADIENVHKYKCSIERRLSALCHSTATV
Chain of D(2) dopamine receptor (Homo sapiens) (P14416 whole entry): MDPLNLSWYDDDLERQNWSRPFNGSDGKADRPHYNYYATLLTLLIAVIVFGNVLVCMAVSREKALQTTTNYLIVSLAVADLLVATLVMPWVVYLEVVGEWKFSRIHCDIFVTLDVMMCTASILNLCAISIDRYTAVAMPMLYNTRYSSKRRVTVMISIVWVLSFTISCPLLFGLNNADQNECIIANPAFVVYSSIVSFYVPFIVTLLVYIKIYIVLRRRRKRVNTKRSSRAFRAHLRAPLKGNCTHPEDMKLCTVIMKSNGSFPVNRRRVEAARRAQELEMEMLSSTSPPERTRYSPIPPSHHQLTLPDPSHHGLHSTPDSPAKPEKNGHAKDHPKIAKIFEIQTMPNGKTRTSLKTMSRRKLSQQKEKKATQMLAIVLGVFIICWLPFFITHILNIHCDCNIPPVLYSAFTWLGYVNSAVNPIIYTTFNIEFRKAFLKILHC

CS(=O)(=O)NCC[C@H](NC(=O)c1cncc2c1cnn2-c1ccc(F)cc1)c1ccnc(S(C)(=O)=O)c1 [BI 9307]
inactive: inhibition [1] -0.86% | residual activity [2] 100% | residual activity [3] 100% | residual activity [4] 100%

CS(=O)(=O)c1cc(C2(NC(=O)c3cncc4c3cnn4-c3ccc(F)cc3)CC2)ccn1 [BI 639667]
inactive: residual activity [5] 87% | residual activity [6] 101% | residual activity [7] 93% | inhibition [8] 17.6% | residual activity [9] 101% | residual activity [10] 93% | residual activity [11] 97% | residual activity [12] 82% | residual activity [13] 91% | residual activity [14] 93% | residual activity [15] 96% | residual activity [16] 91% | residual activity [17] 82% | residual activity [18] 104%

Source: ChEMBL document CHEMBL4507278 (2021)
